One block for each molecule: values may come before it.
Assays:
[1] = test system: larvae of the mustard beetle (Phaedon cochleariae); test: Phaedon larvae test; format: in vivo; conditions: after 7 days
Procedure: (§1) Solvent: 7 parts by weight of dimethylformamide
(§2) Emulsifier: 1 part by weight of alkylaryl polyglycol ether
To produce a suitable preparation of active compound, 1 part of weight of active compound is mixed with the stated amount of solvent and the stated amount of emulsifier, and the concentrate is diluted with water to the desired concentration.
After the desired period of time, the kill in % is determined. 100% means that all the beetle larvae have been killed; 0% means that none of the beetle larvae have been killed.

[2] = log p, n-octanol/water partition coefficient by reverse phase HPLC (H2O/CH3CN); format: physicochemical; conditions: for chromatographic logP: n-octanol/water
[3] = test system: All larval stages of Lucilia cuprina (OP resistant); test: Test with fly larvae/development-inhibitory activity; format: in vivo; conditions: concentration 100 ppm
Procedure: Test with Fly Larvae/development-inhibitory Activity
Test animals: All larval stages of Lucilia cuprina (OP resistant) [pupae and adults (without contact with the active compound)]
35 parts by weight of ethylene glycol monomethyl ether
35 parts by weight of nonylphenol polyglycol ether
To prepare a suitable formulation, 3 parts by weight of active compound are mixed with 7 parts of the abovementioned solvent-emulsifier mixture, and the resulting emulsion concentrate is diluted with water to the concentration desired in each case.
For each concentration, 30 to 50 larvae are transferred to horse meat (1 cm^3) located in glass tubes, and 500 μl of the test dilution are pipetted onto the meat. The glass tubes are placed into plastic beakers whose bottom is covered with sea sand and kept in a controlled-environment cabinet (26° C. ±1.5° C., 70% ±10% relative humidity). Larvicidal activity is checked after 24 hours and 48 hours. After the larvae have left (about 72 h), the glass tubes are removed and perforated plastic lids are placed on the beakers. After 1½ times the development period (hatching of the control flies), the hatched flies and the pupae/puparia are counted.
The criterion for the activity is the death of the treated larvae after 48 h (larvicidal effect), or inhibition of adults hatching from the pupae or inhibition of pupation. […]

[4] = test system: caterpillars of the owlet moth (Spodoptera frugiperda); test: Spodoptera test; format: in vivo; conditions: active compound concentration 0.1%, after 7 days
Procedure: as §1, §2
(§3) To produce a suitable preparation of active compound, 1 part by weight of active compound is mixed with the stated amount of solvent and the stated amount of emulsifier, and the concentrate is diluted with water to the desired concentration.
Cabbage leaves (Brassica oleracea) are treated by being dipped into the active compound preparation of the desired concentration and populated with caterpillars of the owlet moth (Spodoptera frugiperda) while the leaves are still moist.
(§4) After the desired period of time, the kill in % is determined. 100% means that all the caterpillars have been killed; 0% means that none of the caterpillars have been killed.

[5] = test system: greenhouse red spider mite (Tetranychus urticae); test: Tetranychus test (OP resistant/dip treatment); format: in vivo; conditions: active compound concentration 0.01%, after 7 days
Procedure: Tetranychus Test (OP Resistant/Dip Treatment)
Solvent: 3 parts by weight of dimethylformamide
as §2
To produce a suitable preparation of active compound, 1 part by weight of active compound is mixed with the stated amount of solvent and the stated amount of emulsifier, and the concentrate is diluted to the desired concentration using emulsifier-containing water.
Bean plants (Phaseolus vulgaris) which are heavily infested by all stages of the greenhouse red spider mite (Tetranychus urticae) are dipped into an active compound preparation of the desired concentration.
After the desired period of time, the kill in % is determined. 100% means that all the spider mites have been killed; 0% means that none of the spider mites have been killed.

[6] = test system: caterpillars of the cotton bollworm (Heliothis armigera); test: Heliothis armigera test; format: in vivo; conditions: active compound concentration 0.1%, in 6 days
Procedure: as §1, §2
To produce a suitable preparation of active compound, 1 part by weight of active compound is mixed with the stated amounts of solvent and emulsifier, and the concentrate is diluted with water to the desired concentration.
Soya bean shoots (Glycine max) are treated by being dipped into the active compound preparation of the desired concentration and populated with caterpillars of the cotton bollworm (Heliothis armigera) while the leaves are still moist.
as §4

[7] = test system: caterpillars of the army worm (Spodoptera exigua); test: Spodoptera exigua test; format: in vivo; conditions: active compound concentration 0.1%, after 6 days
Procedure: as §1, §2, §3
Cabbage leaves (Brassica oleracea) are treated by being dipped into the active compound preparation of the desired concentration and populated with caterpillars of the army worm (Spodoptera exigua) while the leaves are still moist.
After the desired period of time, the activity in % is determined. 100% means that all the caterpillars have been killed; 0% means that none of the caterpillars have been killed.

[8] = test system: caterpillars of the diamond back moth (Plutella xylostella); test: Plutella test; format: in vivo; conditions: active compound concentration 0.1%, after 6 days
Procedure: as §1, §2, §3
Cabbage leaves (Brassica oleracea) are treated by being dipped into the active compound preparation of the desired concentration and populated with caterpillars of the diamond back moth (Plutella xylostella) while the leaves are still moist.
as §4

[9] = test system: green rice leaf hoppers (Nephotettix cincticeps); test: Nephotettix test; format: in vivo; conditions: active compound concentration 1%, after 6 days
Procedure: as §1, §2, §3
Rice seedlings (Oryza sativa) are treated by being dipped into the active compound preparation of the desired concentration and populated with green rice leaf hoppers (Nephotettix cincticeps) while the seedlings are still moist.
After the desired period of time, the kill in % is determined. 100% means that all the leaf hoppers have been killed; 0% means that none of the leaf hoppers have been killed.

[10] = active compound concentration 0.01%
[11] = active compound concentration 0.1%

melting point: 60 to 62 °C
Compound: CCCc1cc(-c2ccc(C3COC(c4c(F)cccc4F)=N3)cc2)ccc1OC(C)C (stereo not shown) [Example I-2, 2-(2,6-Difluorophenyl)-4-(4-(4-propyl-2-oxy)-3-n-propylphenyl)phenyl-2-oxazoline]
kill in % [1, 10]: 100%

Compound: CC(C)Oc1ccc(-c2ccc(C3COC(c4c(F)cccc4F)=N3)cc2)cc1Cl (stereo not shown) [Example I-19]
log p ([2]; pH 7.5): log p (pH 7.5): 4.96 | kill in % [1, 10]: 100% | development-inhibitory activity [3]: 100%

Compound: CC(C)(C)c1ccc(COc2ccc(-c3ccc(C4COC(c5c(F)cccc5F)=N4)cc3)cc2Cl)cc1 (stereo not shown) [Example I-22]
development-inhibitory activity [3]: 100%

Compound: CC(C)Oc1ccc(-c2ccc(C3COC(c4ccccc4Cl)=N3)cc2)cc1Cl (stereo not shown) [Example I-30]
log p ([2]; pH 7.5): log p (pH 7.5): 5.37 | kill in % [1, 10]: 100%

log p ([2]; pH 7.5): log p: 6.02
Compound: C=CCc1cc(-c2ccc(C3COC(c4ccccc4Br)=N3)cc2)ccc1OC(C)C (stereo not shown) [Example I-291]

log p ([2]; pH 7.5): log p: 5.66
Compound: C=CCOc1ccc(-c2ccc(C3COC(c4ccccc4Br)=N3)cc2)cc1CC=C (stereo not shown) [Example I-293]

log p ([2]; pH 7.5): log p: 5.42
Compound: CC(C)Oc1ccc(-c2ccc(C3COC(c4ccccc4Br)=N3)cc2)cc1Cl (stereo not shown) [Example I-302]

log p ([2]; pH 7.5): log p: 5.13
Compound: C=CCOc1ccc(-c2ccc(C3COC(c4ccccc4Br)=N3)cc2)cc1Cl (stereo not shown) [Example I-304]

chromatographic logP ([2]; pH 7.5): 6.44
Compound: C=CCOc1ccc(-c2ccc(C3COC(c4ccccc4C)=N3)cc2)cc1CCC (stereo not shown) [Example I-314]

Compound: CC(C)Oc1c(Cl)cc(-c2ccc(C3COC(c4c(F)cccc4F)=N3)cc2)cc1Cl (stereo not shown) [Example I-342, 2-(2,6-Difluorophenyl)-4-(4-(4-(propyl-2-oxy)-3,5-dichlorophenyl)phenyl)-4,5-dihydro-oxazoline]
kill in % [4]: 100% | log p ([2]; pH 7.5): 5.65 | kill in % [5]: 100% | kill in % [1, 11]: 100% | kill in % [6]: 100% | kill in % [7]: 100% | kill in % [8]: 100%

Compound: C=CCOc1c(Cl)cc(-c2ccc(C3COC(c4c(F)cccc4F)=N3)cc2)cc1Cl (stereo not shown) [Example I-344]
kill in % [9]: 100% | kill in % [4]: 100% | kill in % [5]: 100% | kill in % [1, 11]: 100%

chromatographic logP ([2]; pH 7.5): 3.77
Compound: CCCc1cc(-c2ccc(C3COC(c4c(F)cccc4F)=N3)cc2)ccc1O (stereo not shown) [II-1, 2-(2,6-Difluorophenyl)-4-(4-(4-hydroxy-3-n-propylphenyl)phenyl)-2-oxazoline]

log p ([2]; pH 7.5): log p: 3.83
Compound: C=CCc1cc(-c2ccc(C3COC(c4c(F)cccc4F)=N3)cc2)cc(C)c1O (stereo not shown) [II-12]

log p ([2]; pH 7.5): log p: 4.75
Compound: C=CCc1cc(-c2ccc(C3COC(c4ccccc4C)=N3)cc2)cc(Cl)c1O (stereo not shown) [II-14]

log p ([2]; pH 7.5): log p: 4.14
Compound: C=CCc1cc(-c2ccc(C3COC(c4ccccc4Cl)=N3)cc2)cc(C)c1O (stereo not shown) [II-19]

log p ([2]; pH 7.5): log p: 4.42
Compound: C=CCc1cc(-c2ccc(C3COC(c4ccccc4Br)=N3)cc2)cc(Cl)c1O (stereo not shown) [II-21]

log p ([2]; pH 7.5): log p: 3.42
Compound: CCc1cc(-c2ccc(C3COC(c4c(F)cccc4F)=N3)cc2)ccc1O (stereo not shown) [II-24]

Compound: CCCc1cc(-c2ccc(C(CCl)NC(=O)c3c(F)cccc3F)cc2)ccc1OC(C)=O (stereo not shown) [VI-1, 2,6-Difluoro-N-[2-chloro-1-(4-(4-acetoxy-3-n-propylphenyl)phenyl)ethyl]-benzamide]
chromatographic logP ([2]; pH 2.3): 3.92

Source: patent US6410581B1, “Disubstituted biphenyloxazolines” (Bayer Aktiengesellschaft, priority 1997, dated 2002)
